Assay results reported in patent publication US11739077B2, “Small molecule inhibitors of ubiquitin specific protease 1 (USP1) and uses thereof” (Insilico Medicine IP Limited, priority 2021, dated 2023).

Columns and labels:
[1] = tested on: MDA-MB-436 cells; test: MDA-MB-436 breast cancer cell proliferation assay (CellTiter-Glo); format: cell-based; conditions: 7 days
Protocol: MDA-MB-436 cells were grown in Leibovitz's L-15 medium with 10 ug/ml insulin, 16 ug/ml glutathione, 10% FBS. Cells were passaged at subconfluence after trypsinization and maintained in incubators at 37° C. in a humidified atmosphere with 5% CO2.
Cell proliferation was determined using CellTiter-Glo® Luminescent Cell Viability Assay (Promega, #G7573). MDA-MB-436 cells were seeded in 384-well plates and allowed to attach for 24 h. Compounds were added into 384-well plate by ECHO, and incubated at 37° C. in a humidified atmosphere with 5% CO2. After 7 days, CellTiter-Glo was added into 384 well plates, contents were mixed on an orbital shaker at […] for 2 min before centrifuging the plate for 2 min at 1000 rpm. After incubation at RT for 30 min, luminescence was read on envision.

[2] = molecular target: Human recombinant USP1/UAF1 (Homo sapiens (Human), UniProt O94782); test: Enzymatic assay, USP1/UAF1 with Ubiquitin Rhodamine 110; format: biochemical; conditions: 2 nM USP1/UAF1, 500 nM Ubiquitin Rhodamine 110, 15 minutes preincubation at RT
Sequence of Human recombinant USP1/UAF1 (O94782 whole entry): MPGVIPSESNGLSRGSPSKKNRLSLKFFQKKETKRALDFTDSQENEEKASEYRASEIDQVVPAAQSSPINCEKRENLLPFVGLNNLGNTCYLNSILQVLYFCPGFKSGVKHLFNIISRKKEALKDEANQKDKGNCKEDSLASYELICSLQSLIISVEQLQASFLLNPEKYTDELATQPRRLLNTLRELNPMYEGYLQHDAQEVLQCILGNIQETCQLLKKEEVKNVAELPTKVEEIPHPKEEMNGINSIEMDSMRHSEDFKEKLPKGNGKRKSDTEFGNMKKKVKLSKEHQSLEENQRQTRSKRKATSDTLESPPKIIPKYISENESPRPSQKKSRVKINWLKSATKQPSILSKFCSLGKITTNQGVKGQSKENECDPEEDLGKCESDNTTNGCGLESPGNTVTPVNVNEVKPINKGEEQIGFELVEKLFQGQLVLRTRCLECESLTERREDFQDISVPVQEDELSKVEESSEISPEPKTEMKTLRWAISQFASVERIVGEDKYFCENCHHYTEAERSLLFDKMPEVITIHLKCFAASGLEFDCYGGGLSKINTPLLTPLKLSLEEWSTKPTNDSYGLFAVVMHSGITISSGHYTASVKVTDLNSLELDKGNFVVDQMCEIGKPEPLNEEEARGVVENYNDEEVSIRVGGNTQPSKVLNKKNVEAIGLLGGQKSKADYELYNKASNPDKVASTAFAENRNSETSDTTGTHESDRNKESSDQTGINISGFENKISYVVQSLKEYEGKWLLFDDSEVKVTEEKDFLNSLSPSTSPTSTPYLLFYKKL
Sequence of Human recombinant USP1/UAF1 (Q8TAF3 whole entry partner): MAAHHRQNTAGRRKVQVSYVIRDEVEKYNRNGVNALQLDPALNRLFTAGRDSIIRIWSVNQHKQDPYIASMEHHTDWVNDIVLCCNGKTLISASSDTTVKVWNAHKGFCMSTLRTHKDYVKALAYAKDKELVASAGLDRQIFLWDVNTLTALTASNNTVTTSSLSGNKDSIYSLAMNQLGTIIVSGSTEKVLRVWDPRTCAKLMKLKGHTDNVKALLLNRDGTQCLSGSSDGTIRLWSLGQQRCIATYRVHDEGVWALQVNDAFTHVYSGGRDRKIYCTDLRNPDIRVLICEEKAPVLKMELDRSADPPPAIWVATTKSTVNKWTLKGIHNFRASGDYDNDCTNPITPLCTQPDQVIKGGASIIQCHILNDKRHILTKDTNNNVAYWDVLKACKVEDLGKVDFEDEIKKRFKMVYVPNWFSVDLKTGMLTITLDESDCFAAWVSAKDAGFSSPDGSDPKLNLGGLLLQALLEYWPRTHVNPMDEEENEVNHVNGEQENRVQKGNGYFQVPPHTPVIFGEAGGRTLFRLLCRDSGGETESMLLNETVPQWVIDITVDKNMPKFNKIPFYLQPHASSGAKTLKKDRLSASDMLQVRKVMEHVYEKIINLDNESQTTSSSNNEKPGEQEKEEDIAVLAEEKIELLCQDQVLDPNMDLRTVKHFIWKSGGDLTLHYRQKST
Protocol: Human recombinant USP1/UAF1 expressed in baculovirus infected Sf21 cells were used (R&D, E-568-050). Test compound and/or vehicle was incubated with 2 nM of USP1/UAF1 in modified HEPES buffer pH 8.0 for 15 minutes at RT. The reaction was initiated by addition of 500 nM of Ubiquitin Rhodamine 110 (R&D, U-555-050) for kinetic reading. Slope change of fluorescence intensity was read spectrofluorimetrically at 485 nm/535 nm.

Row | SMILES | IC50 ([1]; Homo sapiens, 168 h) | IC50 [2] | IC50 [1]
1 | COc1ncnc(C2CC2)c1-c1nn(C)c2c1CN(c1cnc(-c3nc(C(F)(F)F)cn3C)cn1)CC2 [Example 28, 3-(4-cyclopropyl-6-methoxypyrimidin-5-yl)-1-methyl-5-(5-(1-methyl-4-(trifluoromethyl)-1H-imidazol-2-yl)pyrazin-2-yl)-4,5,6,7-tetrahydro-1H-pyrazolo[4,3-c]pyridine] | < 50 nM | < 50 nM | –
2 | COc1ncnc(C2CC2)c1-c1nn(C(F)F)c2c1CN(c1ccc(-c3nc(C(F)(F)F)cn3C)cn1)CC2 [Example 31, 3-(4-cyclopropyl-6-methoxypyrimidin-5-yl)-1-(difluoromethyl)-5-(5-(1-methyl-4-(trifluoromethyl)-1H-imidazol-2-yl)pyridin-2-yl)-4,5,6,7-tetrahydro-1H-pyrazolo[4,3-c]pyridine] | 50 to 1000 nM | < 50 nM | –
3 | COc1ncnc(C2CC2)c1-c1nn(C)c2c1CN(c1ccc(-c3nc(C(F)(F)F)cn3C)nc1)CC2 [Example 6, 3-(4-cyclopropyl-6-methoxypyrimidin-5-yl)-1-methyl-5-(6-(1-methyl-4-(trifluoromethyl)-1H-imidazol-2-yl)pyridin-3-yl)-4,5,6,7-tetrahydro-1H-pyrazolo[4,3-c]pyridine] | < 50 nM | < 50 nM | –
4 | COc1ncnc(C2CC2)c1-c1nn(C)c2c1CN(c1ccc(-c3nc(C(F)(F)F)cn3C)cc1F)CC2 [Example 7, 3-(4-cyclopropyl-6-methoxypyrimidin-5-yl)-5-(2-fluoro-4-(1-methyl-4-(trifluoromethyl)-1H-imidazol-2-yl)phenyl)-1-methyl-4,5,6,7-tetrahydro-1H-pyrazolo[4,3-c]pyridine] | < 50 nM | < 50 nM | –
5 | COc1ncnc(C2CC2)c1-c1nn(C)c2c1CN(c1ccc(-c3nc(C(F)(F)F)cn3C(C)C)cn1)CC2 [Example 10, 3-(4-cyclopropyl-6-methoxypyrimidin-5-yl)-5-(5-(1-isopropyl-4-(trifluoromethyl)-1H-imidazol-2-yl)pyridin-2-yl)-1-methyl-4,5,6,7-tetrahydro-1H-pyrazolo[4,3-c]pyridine] | < 50 nM | < 50 nM | –
6 | Cc1ncnc(C2CC2)c1-c1nn(C)c2c1CN(c1ccc(-c3nc(C(F)(F)F)cn3C)cn1)CC2 [Example 13, 3-(4-cyclopropyl-6-methylpyrimidin-5-yl)-1-methyl-5-(5-(1-methyl-4-(trifluoromethyl)-1H-imidazol-2-yl)pyridin-2-yl)-4,5,6,7-tetrahydro-1H-pyrazolo[4,3-c]pyridine] | 50 to 1000 nM | 50 to 1000 nM | –
7 | Cn1cc(C(F)(F)F)nc1-c1ccc(N2CCc3c(c(-c4cccnc4OC(F)F)nn3C)C2)cc1 [Example 24, 3-(2-(difluoromethoxy)pyridin-3-yl)-1-methyl-5-(4-(1-methyl-4-(trifluoromethyl)-1H-imidazol-2-yl)phenyl)-4,5,6,7-tetrahydro-1H-pyrazolo[4,3-c]pyridine] | 50 to 1000 nM | < 50 nM | –
8 | COc1ncnc(C2CC2)c1-c1nn(C)c2c1CN(c1ncc(-c3nc(C(F)(F)F)cn3C)cn1)CC2 [Example 27, 3-(4-cyclopropyl-6-methoxypyrimidin-5-yl)-1-methyl-5-(5-(1-methyl-4-(trifluoromethyl)-1H-imidazol-2-yl)pyrimidin-2-yl)-4,5,6,7-tetrahydro-1H-pyrazolo[4,3-c]pyridine] | < 50 nM | < 50 nM | –
9 | COc1ncnc(C2CC2)c1-c1nn(C)c2c1CN(c1ccc(-c3nc(C(F)(F)F)cn3C)cn1)CC2 [Example 5, 3-(4-cyclopropyl-6-methoxypyrimidin-5-yl)-1-methyl-5-(5-(1-methyl-4-(trifluoromethyl)-1H-imidazol-2-yl)pyridin-2-yl)-4,5,6,7-tetrahydro-1H-pyrazolo[4,3-c]pyridine] | < 50 nM | < 50 nM | –
10 | COc1ncnc(C2CC2)c1-c1nn(C)c2c1CN(c1ccc(-n3nc(C(F)(F)F)cc3C)cn1)CC2 [Example 15, 3-(4-cyclopropyl-6-methoxypyrimidin-5-yl)-1-methyl-5-(5-(5-methyl-3-(trifluoromethyl)-1H-pyrazol-1-yl)pyridin-2-yl)-4,5,6,7-tetrahydro-1H-pyrazolo[4,3-c]pyridine] | – | < 50 nM | 50 to 1000 nM
11 | COc1ncnc(C2CC2)c1-c1nn(C)c2c1CN(c1ccc(-c3nc(C(F)(F)F)cn3C)c(F)c1)CC2 [Example 8, 3-(4-cyclopropyl-6-methoxypyrimidin-5-yl)-5-(3-fluoro-4-(1-methyl-4-(trifluoromethyl)-1H-imidazol-2-yl)phenyl)-1-methyl-4,5,6,7-tetrahydro-1H-pyrazolo[4,3-c]pyridine] | < 50 nM | < 50 nM | –
12 | [2H]C([2H])([2H])n1nc(-c2c(OC)ncnc2C2CC2)c2c1CCN(c1ccc(-c3nc(C(F)(F)F)cn3C(C)C)cc1)C2 [Example 4, 3-(4-cyclopropyl-6-methoxypyrimidin-5-yl)-5-(4-(1-isopropyl-4-(trifluoromethyl)-1H-imidazol-2-yl)phenyl)-1-(methyl-d3)-4,5,6,7-tetrahydro-1H-pyrazolo[4,3-c]pyridine] | < 50 nM | < 50 nM | –
13 | COc1ncnc(C2CC2)c1-c1nn(C(F)F)c2c1CN(c1ccc(-c3nc(C(F)(F)F)cn3C(C)C)cn1)CC2 [Example 32, 3-(4-cyclopropyl-6-methoxypyrimidin-5-yl)-1-(difluoromethyl)-5-(5-(1-isopropyl-4-(trifluoromethyl)-1H-imidazol-2-yl)pyridin-2-yl)-4,5,6,7-tetrahydro-1H-pyrazolo[4,3-c]pyridine] | 50 to 1000 nM | < 50 nM | –
14 | CCn1nc(-c2c(OC)ncnc2C2CC2)c2c1CCN(c1ccc(-c3nc(C(F)(F)F)cn3C)cn1)C2 [Example 16, 3-(4-cyclopropyl-6-methoxypyrimidin-5-yl)-1-ethyl-5-(5-(1-methyl-4-(trifluoromethyl)-1H-imidazol-2-yl)pyridin-2-yl)-4,5,6,7-tetrahydro-1H-pyrazolo[4,3-c]pyridine] | 50 to 1000 nM | 50 to 1000 nM | –
15 | [2H]C([2H])([2H])n1nc(-c2c(OC)ncnc2C2CC2)c2c1CCN(c1ccc(-c3nc(C(F)(F)F)cn3C(C)C)cn1)C2 [Example 11, 3-(4-cyclopropyl-6-methoxypyrimidin-5-yl)-5-(5-(1-isopropyl-4-(trifluoromethyl)-1H-imidazol-2-yl)pyridin-2-yl)-1-(methyl-d3)-4,5,6,7-tetrahydro-1H-pyrazolo[4,3-c]pyridine] | < 50 nM | < 50 nM | –
16 | CC(C)c1ncncc1-c1nn(C)c2c1CN(c1ccc(-c3nc(C(F)(F)F)cn3C)cc1)CC2 [Example 2, 3-(4-isopropylpyrimidin-5-yl)-1-methyl-5-(4-(1-methyl-4-(trifluoromethyl)-1H-imidazol-2-yl)phenyl)-4,5,6,7-tetrahydro-1H-pyrazolo[4,3-c]pyridine] | 50 to 1000 nM | 50 to 1000 nM | –
17 | COc1ncnc(C2CC2)c1-c1nn(C(F)F)c2c1CN(c1ccc(-c3nc(C(F)(F)F)cn3C)cc1)CC2 [Example 9, 3-(4-cyclopropyl-6-methoxypyrimidin-5-yl)-1-(difluoromethyl)-5-(4-(1-methyl-4-(trifluoromethyl)-1H-imidazol-2-yl)phenyl)-4,5,6,7-tetrahydro-1H-pyrazolo[4,3-c]pyridine] | < 50 nM | < 50 nM | –
18 | [2H]C([2H])([2H])n1nc(-c2c(OC)ncnc2C2CC2)c2c1CCN(c1ccc(-c3nc(C(F)(F)F)cn3C)cc1)C2 [Example 17, 3-(4-cyclopropyl-6-methoxypyrimidin-5-yl)-1-(methyl-d3)-5-(4-(1-methyl-4-(trifluoromethyl)-1H-imidazol-2-yl)phenyl)-4,5,6,7-tetrahydro-1H-pyrazolo[4,3-c]pyridine] | < 50 nM | < 50 nM | –
19 | COc1ncnc(C2CC2)c1-c1nn(C)c2c1CN(c1ccc(-c3nc(C(F)(F)F)cn3C)cc1)CC2 [Example 3, 3-(4-cyclopropyl-6-methoxypyrimidin-5-yl)-1-methyl-5-(4-(1-methyl-4-(trifluoromethyl)-1H-imidazol-2-yl)phenyl)-4,5,6,7-tetrahydro-1H-pyrazolo[4,3-c]pyridine] | < 50 nM | < 50 nM | –
20 | CC(C)c1ncccc1-c1nn(C)c2c1CN(c1ccc(-c3nc(C(F)(F)F)cn3C)cc1)CC2 [Example 1, 3-(2-isopropylpyridin-3-yl)-1-methyl-5-(4-(1-methyl-4-(trifluoromethyl)-1H-imidazol-2-yl)phenyl)-4,5,6,7-tetrahydro-1H-pyrazolo[4,3-c]pyridine] | < 50 nM | < 50 nM | –
21 | COc1ncnc(C2CC2)c1-c1nn(C)c2c1CN(c1ccc(-c3nc(C(F)(F)F)cn3C)nn1)CC2 [Example 29, 3-(4-cyclopropyl-6-methoxypyrimidin-5-yl)-1-methyl-5-(6-(1-methyl-4-(trifluoromethyl)-1H-imidazol-2-yl)pyridazin-3-yl)-4,5,6,7-tetrahydro-1H-pyrazolo[4,3-c]pyridine] | 50 to 1000 nM | 50 to 1000 nM | –
22 | [2H]C([2H])([2H])n1nc(-c2c(OC)ncnc2C2CC2)c2c1CCN(c1ccc(-c3nc(C(F)(F)F)cn3C)cn1)C2 [Example 18, 3-(4-cyclopropyl-6-methoxypyrimidin-5-yl)-1-(methyl-d3)-5-(5-(1-methyl-4-(trifluoromethyl)-1H-imidazol-2-yl)pyridin-2-yl)-4,5,6,7-tetrahydro-1H-pyrazolo[4,3-c]pyridine] | < 50 nM | < 50 nM | –
